For one assay, the target named is T1, h-DHODH (Homo sapiens, UniProt Q02127).
T1 construct: made in house
Put plainly: DHODH enzymatic assay (DCIP reduction at 600 nm). The assay is classed as biochemical. As to conditions: recombinant human enzyme, 25° C. The protocol: DHODH Enzymatic Assay: DHODH activity was determined at 25° C. following the reduction of 2,6-dichloroindophenol sodium salt (DCIP) at 600 nm (ε=18 800 M^−1 cm^−1) on a spectrophotometer. The reaction medium used contained 50 mM Tris-HCl, pH 8.0, 0.1% Triton X-100, 0.1 mM LDHO, 0.025 mM CoQ1, and 0.06 mM DCIP. The reaction was started by addition of the enzyme. The inhibitory potency of the compounds was evaluated by measuring the initial velocity of the reaction either in the absence or in the presence of the compounds at the indicated concentrations. The DHODH enzyme used was the recombinant human enzyme prepared as previously described (Hélène Munier-Lehmann, et al., J. Med. Chem. 2015, 58:860-877).
(§1) Biological Activity. Cell proliferation assays were carried out using the MTS assay described herein using an AML cell line (i.e., OCI-AM L3) as described above. The assays were carried out in a blinded fashion. Assays were also carried out to assess the effect of representative disclosed compounds on DHODH activity.

The next assay concerns OCI-AML3 cell line. Put plainly: MTS assay for cell growth/viability. The assay is classed as cell-based. The note with it: Homo sapiens. The protocol: MTS assay for cell growth/viability: Mitochondrial activity was measured to determine cell proliferation using an MTS assay (tetrazolium dye 3-[4,5-dimethylthiazol-2-yl]-2,5-diphenyl-tetrazolium bromide). Metabolically active cells convert MTS tetrazolium salt into a purple formazan product that is soluble in tissue culture medium. The amount of formazan measured at 490 nm absorbance is proportional to the number of proliferating cells. MTS assays in AML cell lines were carried out with 20K cells plated per well in 96-well plates with Cpd3 or brequinar in a dose series ranging from 0.0001 to 10 μM. Triplicate wells were set up for each condition. At 96 hours, the MTS reagent was added and after approximately 4 hours the plates were read in a spectrophotometer.
as §1

The mark [1] stands for this setting: OCI-AML-3, 96 hours, read-out: OCI-AML3 cell line IC50.
The mark [2] stands for this setting: OCI-AML-3, read-out: growth arrest in the OCI-AML3 cell line, IC50.

Read-outs that look alike come from different tables or passages of the source.

T1 sequence (Q02127 whole entry): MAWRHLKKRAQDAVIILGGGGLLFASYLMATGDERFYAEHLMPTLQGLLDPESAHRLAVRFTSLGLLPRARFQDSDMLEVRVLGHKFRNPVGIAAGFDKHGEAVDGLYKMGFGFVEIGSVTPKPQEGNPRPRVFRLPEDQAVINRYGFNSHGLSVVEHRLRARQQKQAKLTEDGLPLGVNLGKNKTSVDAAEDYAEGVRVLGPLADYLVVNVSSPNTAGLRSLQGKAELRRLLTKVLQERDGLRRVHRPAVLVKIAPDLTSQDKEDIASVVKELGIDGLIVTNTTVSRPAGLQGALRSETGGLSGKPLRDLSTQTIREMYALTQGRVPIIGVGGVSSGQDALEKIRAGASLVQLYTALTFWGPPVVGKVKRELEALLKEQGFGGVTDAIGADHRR

In general, IC50 refers to the concentration needed to halve the response being measured. For the compound `CCOc1cccc(-c2csc(-c3cc(C(=O)O)c4cc(F)ccc4n3)c2)c1` [Cpd3, 2-(4-(3-ethoxyphenyl)thiophen-2-yl)-6-fluoroquinoline-4-carboxylic acid], the results for the IC50 on h-DHODH and in the assay with OCI-AML3 cell line (setting [1]) were 200 nM and 10900 nM, respectively.

Take `CCOc1ccc(-c2ncc(-c3cc(C(=O)O)c4cc(F)ccc4n3)s2)cc1` [Cpd8, 2-(2-(4-ethoxyphenyl)thiazol-5-yl)-6-fluoroquinoline-4-carboxylic acid]: the IC50 was 472 nM at h-DHODH and over 10000 nM in the assay on OCI-AML3 cell line (setting [1]).

For `CCOc1ccc(-c2cnc(-c3cc(C(=O)O)c4cc(F)ccc4n3)s2)cc1` [Cpd6, 2-(5-(4-ethoxyphenyl)thiazol-2-yl)-6-fluoroquinoline-4-carboxylic acid], the IC50 on h-DHODH was 13900 nM; in the assay on OCI-AML3 cell line (setting [1]), over 10000 nM.

`CCOc1ccc(-c2csc(-c3cc(C(=O)O)c4cc(F)ccc4n3)n2)cc1` [Cpd5, 2-(4-(4-ethoxyphenyl)thiazol-2-yl)-6-fluoroquinoline-4-carboxylic acid]: the figures for the 50% inhibitory concentration (IC50) on h-DHODH and with OCI-AML3 cell line (setting [1]) were 524 nM and 7410 nM, respectively.

As for `CCOc1ccc(-c2nc(-c3cc(C(=O)O)c4cc(F)ccc4n3)cs2)cc1` [Cpd7], the figures for the IC50 on h-DHODH and with OCI-AML3 cell line (setting [1]) were 85 nM and 4920 nM, respectively.

`CCOc1ccc(-c2ccc(-c3cc(C(=O)O)c4cc(F)ccc4n3)s2)cc1` [Cpd2, 2-(5-(4-ethoxyphenyl)thiophen-2-yl)-6-fluoroquinoline-4-carboxylic acid]: the half-maximal inhibitory concentration (IC50) on h-DHODH was 212 nM; in the assay on OCI-AML3 cell line (setting [1]) it was 790 nM; in the assay with OCI-AML3 cell line (setting [2]), 410 to 790 nM.

Turning to `CCOc1cccc(-c2ccc(-c3cc(C(=O)O)c4cc(F)ccc4n3)s2)c1` [Cpd4, 2-(5-(3-ethoxyphenyl)thiophen-2-yl)-6-fluoroquinoline-4-carboxylic acid], the values for the IC50 on h-DHODH and with OCI-AML3 cell line (setting [1]) were 223 nM and 3350 nM, respectively.

For `CCOc1ccc(-c2csc(-c3cc(C(=O)O)c4cc(F)ccc4n3)c2)cc1` [Cpd1, 2-(4-(4-ethoxyphenyl)thiophen-2-yl)-6-fluoroquinoline-4-carboxylic acid], the IC50 at h-DHODH is 58 nM; in the assay with OCI-AML3 cell line (setting [1]), 413 nM; with OCI-AML3 cell line (setting [2]), 410 to 790 nM.
